Laboratory results from PubChem BioAssay (NCI).
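Dose response: 5 concentrations. Exposure: 48 h. Format: 96-well plates. Endpoint: linear interpolation; highest concentration if not reached. TGI: total growth inhibition.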

Assays:
Assay in all cases: DTP human tumour cell line panel, 48 h
ACHN renal = system: ACHN renal
CAKI-1 renal = system: CAKI-1 renal
DMS 114 small cell lung = system: DMS 114 small cell lung
HL-60(TB) leukemia = system: HL-60(TB) leukemia
HOP-62 NSCLC = system: HOP-62 NSCLC
KM12 colon = system: KM12 colon
MALME-3M melanoma = system: MALME-3M melanoma
MOLT-4 leukemia = system: MOLT-4 leukemia
OVCAR-5 ovarian = system: OVCAR-5 ovarian
RPMI-8226 leukemia = system: RPMI-8226 leukemia
SF-268 CNS = system: SF-268 CNS
SK-MEL-2 melanoma = system: SK-MEL-2 melanoma
SK-OV-3 ovarian = system: SK-OV-3 ovarian
SR leukemia = system: SR leukemia
TK-10 renal = system: TK-10 renal
U251 CNS = system: U251 CNS
UACC-257 melanoma = system: UACC-257 melanoma
UO-31 renal = system: UO-31 renal
786-0 renal = system: 786-0 renal
A549 NSCLC = system: A549 NSCLC
COLO 205 colon = system: COLO 205 colon
DMS 273 small cell lung = system: DMS 273 small cell lung
EKVX NSCLC = system: EKVX NSCLC
HCC-2998 colon = system: HCC-2998 colon
HOP-92 NSCLC = system: HOP-92 NSCLC
HT29 colon = system: HT29 colon
KM20L2 colon = system: KM20L2 colon
LOX IMVI melanoma = system: LOX IMVI melanoma
LXFL 529 NSCLC = system: LXFL 529 NSCLC
M14 melanoma = system: M14 melanoma
NCI-H226 lung = system: NCI-H226 lung
NCI-H23 lung = system: NCI-H23 lung
NCI-H460 lung = system: NCI-H460 lung
NCI-H522 lung = system: NCI-H522 lung
OVCAR-3 ovarian = system: OVCAR-3 ovarian
OVCAR-4 ovarian = system: OVCAR-4 ovarian
OVCAR-8 ovarian = system: OVCAR-8 ovarian
RXF 393 renal = system: RXF 393 renal
SF-295 CNS = system: SF-295 CNS
SF-539 CNS = system: SF-539 CNS
SK-MEL-28 melanoma = system: SK-MEL-28 melanoma
SN12C renal = system: SN12C renal
SNB-19 CNS = system: SNB-19 CNS
SNB-75 CNS = system: SNB-75 CNS
SNB-78 CNS = system: SNB-78 CNS
SW-620 colon = system: SW-620 colon
CCRF-CEM leukemia = system: CCRF-CEM leukemia
HCT-116 colon = system: HCT-116 colon
IGROV1 ovarian = system: IGROV1 ovarian
K-562 leukemia = system: K-562 leukemia
M19-MEL melanoma = system: M19-MEL melanoma
UACC-62 melanoma = system: UACC-62 melanoma
A498 renal = system: A498 renal
BT-549 breast = system: BT-549 breast
DU-145 prostate = system: DU-145 prostate
HCT-15 colon = system: HCT-15 colon
HS 578T breast = system: HS 578T breast
MCF7 breast = system: MCF7 breast
MDA-MB-231 breast = system: MDA-MB-231 breast
MDA-MB-435 = system: MDA-MB-435
MDA-N = system: MDA-N
NCI/ADR-RES ovarian = system: NCI/ADR-RES ovarian
PC-3 prostate = system: PC-3 prostate
SK-MEL-5 melanoma = system: SK-MEL-5 melanoma
T-47D breast = system: T-47D breast

## CCCC(=O)OC[n+]1ccc2c(C)c3[nH]c4ccc(OC)cc4c3c(C)c2c1
ACHN renal
  TGI: 7.47 µM
CAKI-1 renal
  TGI: 13.6 µM
DMS 114 small cell lung
  TGI: 3.78 µM
HL-60(TB) leukemia
  TGI: 1.82 µM
HOP-62 NSCLC
  TGI: 3.08 µM
KM12 colon
  TGI: 1.77 µM
MALME-3M melanoma
  TGI: > 100 µM
MOLT-4 leukemia
  TGI: 0.322 µM
OVCAR-5 ovarian
  TGI: 2.31 µM
RPMI-8226 leukemia
  TGI: 0.54 µM
SF-268 CNS
  TGI: > 100 µM
SK-MEL-2 melanoma
  TGI: 7.12 µM
SK-OV-3 ovarian
  TGI: 14.9 µM
SR leukemia
  TGI: 2.89 µM
TK-10 renal
  TGI: 20.1 µM
U251 CNS
  TGI: > 100 µM
UACC-257 melanoma
  TGI: > 100 µM
UO-31 renal
  TGI: 6.38 µM

## c1ccc2nc(-c3ccc4c(c3)OCO4)ccc2c1
786-0 renal
  TGI: > 100 µM
A549 NSCLC
  TGI: > 100 µM
ACHN renal
  TGI: > 100 µM
CAKI-1 renal
  TGI: > 100 µM
COLO 205 colon
  TGI: > 100 µM
DMS 114 small cell lung
  TGI: 67.5 µM
DMS 273 small cell lung
  TGI: 62.8 µM
EKVX NSCLC
  TGI: > 100 µM
HCC-2998 colon
  TGI: > 100 µM
HL-60(TB) leukemia
  TGI: > 100 µM
HOP-62 NSCLC
  TGI: 79.5 µM
HOP-92 NSCLC
  TGI: 19 µM
HT29 colon
  TGI: 79.7 µM
KM12 colon
  TGI: > 100 µM
KM20L2 colon
  TGI: > 100 µM
LOX IMVI melanoma
  TGI: 82.7 µM
LXFL 529 NSCLC
  TGI: > 100 µM
M14 melanoma
  TGI: > 100 µM
MALME-3M melanoma
  TGI: 68 µM
NCI-H226 lung
  TGI: 97.6 µM
NCI-H23 lung
  TGI: > 100 µM
NCI-H460 lung
  TGI: > 100 µM
NCI-H522 lung
  TGI: > 100 µM
OVCAR-3 ovarian
  TGI: 71.1 µM
OVCAR-4 ovarian
  TGI: > 100 µM
OVCAR-5 ovarian
  TGI: > 100 µM
OVCAR-8 ovarian
  TGI: > 100 µM
RXF 393 renal
  TGI: 58.9 µM
SF-268 CNS
  TGI: > 100 µM
SF-295 CNS
  TGI: > 100 µM
SF-539 CNS
  TGI: > 100 µM
SK-MEL-2 melanoma
  TGI: > 100 µM
SK-MEL-28 melanoma
  TGI: > 100 µM
SN12C renal
  TGI: > 100 µM
SNB-19 CNS
  TGI: > 100 µM
SNB-75 CNS
  TGI: > 100 µM
SNB-78 CNS
  TGI: > 100 µM
SR leukemia
  TGI: 43.9 µM
SW-620 colon
  TGI: > 100 µM
TK-10 renal
  TGI: > 100 µM
U251 CNS
  TGI: > 100 µM
UACC-257 melanoma
  TGI: 48.7 µM
UO-31 renal
  TGI: 93.3 µM

## Cc1c(-c2c(C)c(=O)c3c(C(C)C)c(=O)c(=O)c(C=O)c-3c2=O)c(O)c2c(C=O)c(O)c(O)c(C(C)C)c2c1O
ACHN renal
  TGI: 10.3 µM
CCRF-CEM leukemia
  TGI: 5.07 µM
COLO 205 colon
  TGI: 11.8 µM
DMS 114 small cell lung
  TGI: 5.82 µM
HCT-116 colon
  TGI: 7.81 µM
HL-60(TB) leukemia
  TGI: 11.1 µM
HOP-62 NSCLC
  TGI: 14.3 µM
HOP-92 NSCLC
  TGI: 7.49 µM
HT29 colon
  TGI: 4.87 µM
IGROV1 ovarian
  TGI: 11.3 µM
K-562 leukemia
  TGI: 10.7 µM
KM12 colon
  TGI: 4.9 µM
LXFL 529 NSCLC
  TGI: 12.8 µM
M14 melanoma
  TGI: 4.24 µM
M19-MEL melanoma
  TGI: 15.4 µM
MALME-3M melanoma
  TGI: 15.2 µM
MOLT-4 leukemia
  TGI: 11.3 µM
NCI-H23 lung
  TGI: 10.5 µM
NCI-H460 lung
  TGI: 11.8 µM
NCI-H522 lung
  TGI: 15.7 µM
OVCAR-3 ovarian
  TGI: 7.02 µM
OVCAR-4 ovarian
  TGI: 12 µM
OVCAR-5 ovarian
  TGI: 7.82 µM
RPMI-8226 leukemia
  TGI: 9.9 µM
RXF 393 renal
  TGI: 6.99 µM
SF-268 CNS
  TGI: 18.8 µM
SF-295 CNS
  TGI: 3.94 µM
SF-539 CNS
  TGI: 8.87 µM
SK-MEL-2 melanoma
  TGI: 3.68 µM
SK-MEL-28 melanoma
  TGI: 16.4 µM
SK-OV-3 ovarian
  TGI: 13 µM
SNB-19 CNS
  TGI: 17.6 µM
SNB-75 CNS
  TGI: 26.2 µM
SNB-78 CNS
  TGI: 6.78 µM
SR leukemia
  TGI: 17.1 µM
U251 CNS
  TGI: 11.3 µM
UACC-257 melanoma
  TGI: 13.6 µM
UACC-62 melanoma
  TGI: 8.14 µM
UO-31 renal
  TGI: 5.5 µM

## Cc1cc(C)c([S@@](=O)O[C@@H]2[C@H]3OC(C)(C)O[C@H]3O[C@@H]2[C@H]2COC(C)(C)O2)c(C)c1
786-0 renal
  TGI: 64.6 µM
A498 renal
  TGI: 47.2 µM
A549 NSCLC
  TGI: > 100 µM
ACHN renal
  TGI: 33.5 µM
BT-549 breast
  TGI: 30.6 µM
CAKI-1 renal
  TGI: 9.11 µM
CCRF-CEM leukemia
  TGI: 88.7 µM
COLO 205 colon
  TGI: 38.9 µM
DU-145 prostate
  TGI: 89.2 µM
EKVX NSCLC
  TGI: 61.2 µM
HCC-2998 colon
  TGI: 41.7 µM
HCT-116 colon
  TGI: 57 µM
HCT-15 colon
  TGI: > 100 µM
HL-60(TB) leukemia
  TGI: 28.7 µM
HOP-62 NSCLC
  TGI: 51.3 µM
HOP-92 NSCLC
  TGI: 38.4 µM
HS 578T breast
  TGI: > 100 µM
HT29 colon
  TGI: 85.7 µM
IGROV1 ovarian
  TGI: 18 µM
K-562 leukemia
  TGI: 76.8 µM
KM12 colon
  TGI: 40.2 µM
LOX IMVI melanoma
  TGI: 30.1 µM
M14 melanoma
  TGI: 59.4 µM
MALME-3M melanoma
  TGI: 80.1 µM
MCF7 breast
  TGI: 57.9 µM
MDA-MB-231 breast
  TGI: 60.5 µM
MDA-MB-435
  TGI: 40.2 µM
MDA-N
  TGI: 65.4 µM
MOLT-4 leukemia
  TGI: 43.3 µM
NCI-H226 lung
  TGI: 53.2 µM
NCI-H23 lung
  TGI: 89.5 µM
NCI-H460 lung
  TGI: 62.9 µM
NCI-H522 lung
  TGI: 24.1 µM
NCI/ADR-RES ovarian
  TGI: 57 µM
OVCAR-3 ovarian
  TGI: 41.6 µM
OVCAR-4 ovarian
  TGI: 42.8 µM
OVCAR-5 ovarian
  TGI: 83.9 µM
OVCAR-8 ovarian
  TGI: 37.6 µM
PC-3 prostate
  TGI: 41.2 µM
RPMI-8226 leukemia
  TGI: 50.5 µM
RXF 393 renal
  TGI: 36.3 µM
SF-268 CNS
  TGI: 95.3 µM
SF-295 CNS
  TGI: > 100 µM
SF-539 CNS
  TGI: 39.5 µM
SK-MEL-2 melanoma
  TGI: 86.1 µM
SK-MEL-28 melanoma
  TGI: 90.5 µM
SK-MEL-5 melanoma
  TGI: 97.9 µM
SK-OV-3 ovarian
  TGI: > 100 µM
SN12C renal
  TGI: 42.7 µM
SNB-19 CNS
  TGI: > 100 µM
SNB-75 CNS
  TGI: 59.6 µM
SR leukemia
  TGI: 49 µM
SW-620 colon
  TGI: 49.3 µM
T-47D breast
  TGI: > 100 µM
TK-10 renal
  TGI: 59.7 µM
U251 CNS
  TGI: 44.1 µM
UACC-257 melanoma
  TGI: 46.2 µM
UACC-62 melanoma
  TGI: 51.6 µM
UO-31 renal
  TGI: 33.2 µM
